Source: patent US8143236B2, “Chemoprotective methods” (BioNumerik Pharmaceuticals, Inc., priority 2006, dated 2012)

How the values were obtained:
[1] = Randomized double-blind placebo-controlled clinical study with paclitaxel: hypersensitivity Adverse Events by infusion time and concentration (FIG. 1); type: in vivo, human; conditions: for proportion of patients with at least one hypersensitivity Adverse Event: entire treated population: paclitaxel plus either placebo or drug (1:1)
Description: FIG. 1 illustrates a comparison of the number of hypersensitivity Adverse Events between groups of patients in whom 2,2′-dithio-bis-ethane sulfonate or a placebo was infused over (1) 30 minutes, (2) 30 and 45 minutes, or (3) 45 minutes. The chemotherapeutic agent administered was paclitaxel. In this Figure, n=#, equals the number of patients.
New methods of administration of agents such as 2,2′-dithio-bis-ethane sulfonate, pharmaceutically-acceptable salts, and/or an analog thereof, have now been discovered in connection with a human clinical study comprising a randomized, double-blind, placebo-controlled study with a 1:1 randomization. Initial blinded study results support the ability of compounds such as 2,2′-dithio-bis-ethane sulfonate to markedly enhance overall safety, decrease overall Adverse Events, decrease hypersensitivity-based Adverse Events, and increase the time of Adverse Event onset, while maintaining at least the same therapeutic indices (e.g. dose level administered in a prescribed specific time schedule, including duration of administration and frequency), and reduction, prevention, mitigation, and/or delay of toxicities associated with the administration of chemotherapeutic agents.
This reduction in the proportion of patients experiencing hypersensitivity reactions overall represents a medically significant difference in such adverse reactions. It represents a reduction in the risk of an observed potentially serious and life-threatening Adverse Event by approximately 29% in the entire study population (i.e., both placebo and 2,2′-dithio-bis-ethane sulfonate populations).
FIG. 1 illustrates a comparison of the number of hypersensitivity Adverse Events between groups of patients in whom 2,2′-dithio-bis-ethane sulfonate or a placebo was infused over (1) 30 minutes, (2) 30 minutes and 45 minutes, or (3) 45 minutes. In addition, the total number of hypersensitivity Adverse Events, the mean time to the first hypersensitivity Adverse Event, and a variety of the types of hypersensitivity Adverse Events were also shown. […] This reduction in the proportion of patients experiencing hypersensitivity Adverse Events overall represents a reduction in the risk of an observed potentially serious and life-threatening Adverse Event by approximately 29% in the entire study population (i.e., both placebo and disodium 2,2′-dithio-bis-ethane sulfonate populations).

[2] = system: paclitaxel-induced thermoparesthesia; assay: Paclitaxel-induced thermoparesthesia model; type: in vivo, rats
[3] = system: chemotherapy-induced peripheral neuropathy; assay: Japan Phase III Clinical Trial, NSCLC patients receiving paclitaxel and cisplatin; type: in vivo, human; conditions: NSCLC; paclitaxel/Tavocept/cisplatin vs paclitaxel/saline placebo/cisplatin
Description: (§1) The Japan Phase III Clinical Trial was conducted as a double-blind study because peripheral neuropathy is diagnosed based on subjective symptoms evaluated through clinical interviews, lab tests, and the like. Accordingly, evaluations by both physicians and patients are highly important. […] A placebo was used as control since there is no established therapy or drug for preventing peripheral neuropathy. Because the severity of peripheral neuropathy is evaluated based on patients' reports (i.e., subjective symptoms), the Patient Neurotoxicity Questionnaire (PNQ©) (also known as the Peripheral Neuropathy Questionnaire) was used in primary evaluation. The CIPN-20 questionnaire and the National Cancer Institute-Common Toxicity Criteria (NCI-CTC) were used in secondary evaluation. The incidence and severity of adverse reactions, time to their onset, etc. and the like, were compared between patients treated with Tavocept™ and those given a placebo using the aforementioned methods.
(§2) The Primary Endpoint of the Japan Phase III Clinical Trial described in the present invention was specifically designed to test the hypothesis of whether chemotherapy-induced intermittent peripheral neuropathy would occur. The utilization of physical examination, laboratory tests, and highly detailed patient evaluation, especially utilizing the Patient Neurotoxicity Questionnaire (PNQ©), also known as the Peripheral Neuropathy Questionnaire, was responsible for the identification and characterization of this novel intermittent form of chemotherapy-induced peripheral neuropathy. The results illustrated in FIG. 3 indicate that intermittent peripheral neuropathy was specifically identified and measured in the Japan Phase III Clinical Trial. […] Additionally, the results illustrated in FIG. 4 and FIG. 5 also support the finding that the Formula (I) compound, Tavocept™, can mitigate and/or prevent intermittent peripheral neuropathy. FIG. 4 provides data supporting the merit of utilizing the Patient Neurotoxicity Questionnaire (PNQ©), also known as the Peripheral Neuropathy Questionnaire, and the Generalized Estimating Equation (GEE) statistical method to evaluate intermittent and cumulative peripheral neuropathy.

[4] = as above; type: in vivo, human
Description: as §1, §2

tubulin = conditions: in vitro; paclitaxel 6 μM; cited from earlier work
[5] = system: paclitaxel-induced decreases in NCV; assay: Paclitaxel-induced decrease in nerve conduction velocity (NCV); type: in vivo; conditions: rats; paclitaxel 6 mg/kg i.v. 5 times every other day; 1,000 mg/kg i.v. immediately after paclitaxel
[6] = system: sciatic and tibial nerves; assay: Histopathological abnormalities of sciatic and tibial nerves caused by paclitaxel; type: in vivo; conditions: paclitaxel 30 mg/kg i.v. every other day (3 doses); 2,000 mg/kg i.v. immediately after paclitaxel
[7] = system: decreases in NCV by cisplatin; assay: Cisplatin-induced decrease in nerve conduction velocity (NCV); type: in vivo; conditions: rats, cisplatin 2 mg/kg i.p. twice a week for 6 weeks, 1,000 mg/kg i.v. immediately before cisplatin
Description: Effects of the Formula (I) compound, Tavocept™ (dimesna; disodium 2,2′-dithio-bis-ethane sulfonate), on decreases in nerve conduction velocity (NCV) induced by cisplatin (2 mg/kg) administered by i.p. injection twice a week for 6 consecutive weeks were evaluated in rats.

[8] = after intravenous administration; intracellular glutathione as a cofactor; cited from earlier work
[9] = in vivo; cited from earlier work

Q: Which results are given for `O=S(=O)([O-])CCSSCCS(=O)(=O)[O-].[Na+].[Na+]` [Tavocept™, disodium 2,2′-dithio-bis-ethane sulfonate]?
A: proportion of patients with at least one hypersensitivity Adverse Event ([1]; 100 mg/mL over 45 minutes): approximately 30%; proportion of patients with at least one hypersensitivity Adverse Event ([1]; 200 mg/mL over 30 minutes): approximately 42%; reduction in the overall proportion of patients experiencing hypersensitivity reactions ([1]; 45 min 100 mg/mL vs 30 min 200 mg/mL, absolute difference): approximately 12%; reduction in hypersensitivity Adverse Events in the drug treatment population ([1]; 45 min 100 mg/mL vs 30 min 200 mg/mL, assumes no placebo effect): ≤ 57%; reduction in the risk of hypersensitivity Adverse Event in the entire study population ([1]; 45 min 100 mg/mL vs 30 min 200 mg/mL, placebo and drug populations together): approximately 29%; inhibition rates of thermoparesthesia caused by paclitaxel ([2]; paclitaxel 12 mg/kg i.p. once a week for 5 weeks, 2,000 mg/kg i.v. immediately after paclitaxel): 19.2-34.1%; maximum inhibition rate of paclitaxel-induced thermoparesthesia ([2]; rats, paclitaxel 6 mg/kg i.v. 5 times every other day, 1,000 mg/kg): 41.7%; inhibition of paclitaxel-induced thermoparesthesia ([2]; rats, paclitaxel 6 mg/kg i.v. 5 times every other day, 1,000 mg/kg i.v. immediately after paclitaxel): 27.5-59.2%; maximum inhibition rate of paclitaxel-induced thermoparesthesia ([2]; rats, paclitaxel 6 mg/kg i.v. 5 times every other day, 2,000 mg/kg): 41.5%; reduction in severe (Grade D or E) intermittent or cumulative peripheral neuropathy (FIG. 5) [3]: ~50%; survival of patients with NSCLC ([4]; Tavocept and chemotherapy): medically important increase in survival; survival time of patients with adenocarcinoma ([4]; Tavocept and chemotherapy): medically important increase in survival time; chemotherapy-induced anemia, nausea/vomiting, fatigue, and kidney damage ([4]; clinical trial population): medically important reductions; hematological function (hemoglobin, hematocrit, erythrocyte levels) ([4]; patients with non-small cell lung carcinoma and adenocarcinoma): maintenance or stimulation of hematological function; concentration at which tubulin polymerization induced by paclitaxel is inhibited (tubulin): 6 mM; inhibition of paclitaxel-induced decreases in NCV [5]: 92.2%; increases in the incidence of histopathological abnormalities of the sciatic and tibial nerves [6]: inhibited; inhibition rate of decreases in NCV by cisplatin ([7]; 5 weeks after starting cisplatin): 53.6%; inhibition rate of decreases in NCV by cisplatin ([7]; 6 weeks after starting cisplatin): 64.7%; uptake and metabolism [8]: rapidly taken up in the kidney and metabolized into mesna

Q: Which “cumulative dose above which cisplatin-induced neuropathy usually occurs” value [9] does the source give for `N.N.[Cl][Pt][Cl]` [cisplatin] here?
A: exceeds 300 mg/m^2
